These results are taken from US20080108600A1, “Polycyclic Pyridines as Potassium Ion Channel Modulators” (Icagen, Inc., priority 2004, published 2008).

For one experiment, the target named is hSK2 (Homo sapiens, UniProt Q9H2S1). Put plainly: 86Rb+ efflux assay for compound activity towards hSK channels. Format: cell-based. The settings on record: 86Rb+ efflux stimulated with calcium ionophore; drug 0.01 to 30 μM; read-out: hSK2 Inhibitory Activity. The method, then:
24.1 Assay for Compound Activity Towards hSK Channels
Cells expressing small conductance, calcium activated potassium channels, such as SK-like channels were loaded with ^86Rb^+ by culture in media containing ^86RbCl. Following loading, the culture media was removed and the cells were washed in EBSS to remove residual traces of ^86Rb^+. Cells were preincubated with the drug (0.01 to 30 μM in EBSS) and then ^86Rb^+ efflux was stimulated by exposing cells to EBSS solution supplemented with a calcium ionophore, such as ionomycin, in the continued presence of the drug. After a suitable efflux period, the EBSS/ionophore solution was removed from the cells and the ^86Rb^+ content was determined by Cherenkov counting (Wallac Trilux). Cells were then lysed with a SDS solution and the ^86Rb^+ content of the lysate was determined. Percent ^86Rb^+ efflux was calculated according to the following equation:
(^86Rb^+ content in EBSS/(86Rb^+ content in EBSS+^86Rb^+ content of the lysate))×100

Experiment [1] concerns learning and memory formation for a passive avoidance task in mice following electroconvulsive shock. Put plainly: Electroconvulsive shock-passive avoidance model. The settings on record: Mus musculus, ip, passive avoidance after electroconvulsive shock, read-out: In Vivo Inhibitory Activity (minimum effective dose, (MED)). From the text: 25.1 Assay for Compound Activity in an Electroconvulsive Shock-Passive/Avoidance Model
The effects of compounds of the invention were studied on learning and memory formation for a passive avoidance task in mice following electroconvulsive shock training utilizing a modification of the protocol described by Inan, et al., Eur. J. Pharmacol., (2000), 407(1-2): 159-64.

Experiment [2] concerns the target T1, recombinant human SK4 (hIK1, hKCa4) channels (Homo sapiens, UniProt O15554).
T1 construct: host or cells: HEK 293
Conditions: applied to the inside of SK4 channel-expressing membrane patches; cited from earlier work.

As for `CN1CCC(=O)N(c2ccc(Nc3cccc(-c4nccs4)n3)nc2)CC1` [1-Methyl-4-[6-(6-thiazol-2-yl-pyridin-2-ylamino)-pyridin-3-yl]-[1,4]diazepan-5-one], the IC50 on hSK2 fell in the range of 100 to 500 nM. Moreover, the minimal effective dose in experiment [1] was < 2 mg/kg.

Turning to `COc1ccc(-c2nccs2)nc1Nc1ccc(N2CCCC2=O)cn1` [1-[6-(3-Methoxy-6-thiazol-2-yl-pyridin-2-ylamino)-pyridin-3-yl]-pyrrolidin-2-one], the IC50 on hSK2 is < 100 nM. The minimal effective dose in experiment [1] is < 2 mg/kg.

As to `O=C1CNCCN1c1ccc(Nc2cccc(-c3nccs3)n2)nc1` [1-[6-(6-Thiazol-2-yl-pyridin-2-ylamino)-pyridin-3-yl]-piperazin-2-one], the IC50 at hSK2 was 100 to 500 nM. Besides, the minimal effective dose in experiment [1] was < 2 mg/kg.

Regarding `O=C1CCCN1c1ccc(Nc2cccc(-c3ncc(Cl)s3)n2)nc1` [1-{6-[6-(5-Chloro-thiazol-2-yl)-pyridin-2-ylamino]-pyridin-3-yl}-pyrrolidin-2-one], the IC50 at hSK2 is < 100 nM. Moreover, the minimal effective dose in experiment [1] was < 2 mg/kg.

As to `CN1CCN(c2ccc(Nc3cccc(-c4nccs4)n3)nc2)C(=O)C1` [4-Methyl-1-[6-(6-thiazol-2-yl-pyridin-2-ylamino)-pyridin-3-yl]-piperazin-2-one], the IC50 on hSK2 fell in the range of 100 to 500 nM. Further, the minimal effective dose in experiment [1] is < 2 mg/kg.

Regarding `COc1ccc(-c2nccs2)nc1Nc1ccc(N2CCCCC2)cn1` [(3-Methoxy-6-thiazol-2-yl-pyridin-2-yl)-(3,4,5,6-tetrahydro-2H-[1,3′]bipyridinyl-6′-yl)-amine], the IC50 on hSK2 was < 100 nM. Moreover, the minimal effective dose in experiment [1] is < 2 mg/kg.

Regarding `COc1ccc(-c2nccs2)nc1Nc1ccc(N2CCOCC2)cn1` [(3-Methoxy-6-thiazol-2-yl-pyridin-2-yl)-(5-morpholin-4-yl-pyridin-2-yl)-amine], the IC50 at hSK2 was < 100 nM. Moreover, in experiment [1], the minimal effective dose was < 2 mg/kg.

`COc1ccc(-c2nccs2)nc1Nc1ccc(N2CCCC2)cn1` [(3-Methoxy-6-thiazol-2-yl-pyridin-2-yl)-(5-pyrrolidin-1-yl-pyridin-2-yl)-amine]: the IC50 on hSK2 is < 100 nM. Besides, in experiment [1], the minimal effective dose was < 2 mg/kg.

For the compound `COc1ccc(-c2nccs2)nc1Nc1ccc(N2CCN(C)CC2)cn1` [(3-Methoxy-6-thiazol-2-yl-pyridin-2-yl)-[5-(4-methyl-piperazin-1-yl)-pyridin-2-yl]-amine], the IC50 at hSK2 was < 100 nM. Moreover, the minimal effective dose in experiment [1] was < 2 mg/kg.

For the compound `c1cc(Nc2cc3c(cn2)CCCC3)nc(-c2nccs2)c1` [(5,6,7,8-Tetrahydro-isoquinolin-3-yl)-(6-thiazol-2-yl-pyridin-2-yl)-amine], the IC50 at hSK2 was < 100 nM. Further, the minimal effective dose in experiment [1] was < 2 mg/kg.

On to `Cc1cnn(-c2cccc(Nc3ccc(Br)cn3)n2)c1` [(5-Bromo-pyridin-2-yl)-[6-(4-methyl-pyrazol-1-yl)-pyridin-2-yl]-amine], for which the IC50 at hSK2 was < 100 nM. The minimal effective dose in experiment [1] was < 2 mg/kg.

As to `Clc1ccc(Nc2cccc(-c3cnccn3)n2)nc1` [(5-Chloro-pyridin-2-yl)-(6-pyrazin-2-yl-pyridin-2-yl)-amine], on hSK2, the IC50 is 100 to 500 nM. Also, the minimal effective dose in experiment [1] was < 2 mg/kg.

Regarding `Clc1ccc(Nc2cccc(-n3cccn3)n2)nc1` [(5-Chloro-pyridin-2-yl)-(6-pyrazol-1-yl-pyridin-2-yl)-amine], the IC50 at hSK2 was < 100 nM. In addition, the minimal effective dose in experiment [1] is 2 to 100 mg/kg.

Turning to `Clc1ccc(Nc2cccc(-c3nccs3)n2)nc1` [(5-Chloro-pyridin-2-yl)-(6-thiazol-2-yl-pyridin-2-yl)-amine], the IC50 at hSK2 is < 100 nM. Moreover, in experiment [1], the minimal effective dose was in the range of 2 to 100 mg/kg.

As to `Cc1ccc(Nc2cccc(-c3nccs3)n2)nc1` [(5-Methyl-pyridin-2-yl)-(6-thiazol-2-yl-pyridin-2-yl)-amine], on hSK2, the IC50 was < 100 nM. Moreover, the minimal effective dose in experiment [1] lay in the range of 2 to 100 mg/kg.

As for `c1ccc(-c2ccc(Nc3cccc(-c4nccs4)n3)nc2)cc1` [(5-Phenyl-pyridin-2-yl)-(6-thiazol-2-yl-pyridin-2-yl)-amine], on hSK2, the IC50 was 100 to 500 nM. In addition, in experiment [1], the minimal effective dose was < 2 mg/kg.

`c1cc(Nc2ccc(CN3CCCC3)cn2)nc(-c2nccs2)c1` [(5-Pyrrolidin-1-ylmethyl-pyridin-2-yl)-(6-thiazol-2-yl-pyridin-2-yl)-amine]: at hSK2, the IC50 was < 100 nM. The minimal effective dose in experiment [1] is < 2 mg/kg.

In the case of `c1cc(Nc2ccc(-c3ccsc3)cn2)nc(-c2nccs2)c1` [(6-Thiazol-2-yl-pyridin-2-yl)-(5-thiophen-3-yl-pyridin-2-yl)-amine], the IC50 on hSK2 was < 100 nM. In addition, the minimal effective dose in experiment [1] is < 2 mg/kg.

Take `[Ba+2]` [Barium]: the “activation of SK4 channels” value in experiment [2] is on record as “activated SK4 channels in a concentration-dependent manner”.

In the case of `c1cc(Nc2ccc(CN3Cc4ccccc4C3)cn2)nc(-c2nccs2)c1` [[5-(1,3-Dihydro-isoindol-2-ylmethyl)-pyridin-2-yl]-(6-thiazol-2-yl-pyridin-2-yl)-amine], the minimal effective dose in experiment [1] was < 2 mg/kg.

As for `COc1ccccc1-c1ccc(Nc2cccc(-c3nccs3)n2)nc1` [[5-(2-Methoxy-phenyl)-pyridin-2-yl]-(6-thiazol-2-yl-pyridin-2-yl)-amine], the IC50 at hSK2 was 100 to 500 nM. For the same compound, in experiment [1], the minimal effective dose lay in the range of 2 to 100 mg/kg.

As to `Cc1cnn(-c2cccc(Nc3ccc(-c4cccc(F)c4)cn3)n2)c1` [[5-(3-Fluoro-phenyl)-pyridin-2-yl]-[6-(4-methyl-pyrazol-1-yl)-pyridin-2-yl]-amine], the IC50 on hSK2 is < 100 nM. In addition, the minimal effective dose in experiment [1] is < 2 mg/kg.

Regarding `COc1ccc(-c2ncc(Cl)s2)nc1Nc1ccc(N2CCC(OC)CC2)cn1` [[6-(5-Chloro-thiazol-2-yl)-3-methoxy-pyridin-2-yl]-(4-methoxy-3,4,5,6-tetrahydro-2H-[1,3′]bipyridinyl-6′-yl)-amine], at hSK2, the IC50 is < 100 nM.

Take `COc1ccc(-c2ncc(Cl)s2)nc1Nc1ccc(N2CCOCC2)cn1` [[6-(5-Chloro-thiazol-2-yl)-3-methoxy-pyridin-2-yl]-(5-morpholin-4-yl-pyridin-2-yl)-amine]: the IC50 at hSK2 is < 100 nM.

On to `COc1ccc(-c2ncc(Cl)s2)nc1Nc1ccc(N2CCCC2)cn1` [[6-(5-Chloro-thiazol-2-yl)-3-methoxy-pyridin-2-yl]-(5-pyrrolidin-1-yl-pyridin-2-yl)-amine], for which the IC50 on hSK2 was < 100 nM. The minimal effective dose in experiment [1] is < 2 mg/kg.

Consider `COc1ccc(-c2ncc(Cl)s2)nc1Nc1ccccn1` [[6-(5-Chloro-thiazol-2-yl)-3-methoxy-pyridin-2-yl]-pyridin-2-yl-amine], for which, on hSK2, the IC50 is < 100 nM.

`Clc1cnc(-c2cccc(Nc3ccc(N4CCCCC4)cn3)n2)s1` [[6-(5-Chloro-thiazol-2-yl)-pyridin-2-yl]-(3,4,5,6-tetrahydro-2H-[1,3′]bipyridinyl-6′-yl)-amine]: the IC50 on hSK2 was 100 to 500 nM. Also, the minimal effective dose in experiment [1] was < 2 mg/kg.

Turning to `Clc1cnc(-c2cccc(Nc3ccc(N4CCOCC4)cn3)n2)s1` [[6-(5-Chloro-thiazol-2-yl)-pyridin-2-yl]-(5-morpholin-4-yl-pyridin-2-yl)-amine], on hSK2, the IC50 is < 100 nM.

On to `Clc1cnc(-c2cccc(Nc3ccc(N4CCCC4)cn3)n2)s1` [[6-(5-Chloro-thiazol-2-yl)-pyridin-2-yl]-(5-pyrrolidin-1-yl-pyridin-2-yl)-amine], for which, at hSK2, the IC50 was < 100 nM.

As for `Clc1cnc(-c2cccc(Nc3ccccn3)n2)s1` [[6-(5-Chloro-thiazol-2-yl)-pyridin-2-yl]-pyridin-2-yl-amine], the IC50 on hSK2 is < 100 nM.

As for `CCc1cnc(-c2cccc(Nc3ccccn3)n2)s1` [[6-(5-Ethyl-thiazol-2-yl)-pyridin-2-yl]-pyridin-2-yl-amine], the IC50 on hSK2 was < 100 nM.

On to `CC(C)c1cnc(-c2cccc(Nc3ccccn3)n2)s1` [[6-(5-Isopropyl-thiazol-2-yl)-pyridin-2-yl]-pyridin-2-yl-amine], for which, at hSK2, the IC50 was < 100 nM.

In the case of `Cc1cnc(-c2cccc(Nc3ccc(N4CCCCC4)cn3)n2)s1` [[6-(5-Methyl-thiazol-2-yl)-pyridin-2-yl]-(3,4,5,6-tetrahydro-2H-[1,3′]bipyridinyl-6′-yl)-amine], the IC50 on hSK2 lay within 100 to 500 nM.

Regarding `Cc1cnc(-c2cccc(Nc3ccccn3)n2)s1` [[6-(5-Methyl-thiazol-2-yl)-pyridin-2-yl]-pyridin-2-yl-amine], on hSK2, the IC50 is < 100 nM.

Regarding `[Cd]` [cadmium], the “activation of SK4 channels” value in experiment [2] is reported as “activated SK4 channels in a concentration-dependent manner”.

Take `[Ca+2]` [calcium]: the “activation of SK4 channels” value in experiment [2] is “activated SK4 channels in a concentration-dependent manner”.

Turning to `[Co+2]` [cobalt], the “activation of SK4 channels” value in experiment [2] is listed as “did not activate the SK4 channels”.

On to `[Fe]` [iron], for which the “activation of SK4 channels” value in experiment [2] was “did not activate the SK4 channels”.

In the case of `[Pb+2]` [lead], the “activation of SK4 channels” value in experiment [2] is recorded as “activated SK4 channels in a concentration-dependent manner”.

As to `[Mg+2]` [magnesium], the “activation of SK4 channels” value in experiment [2] is listed as “did not activate the SK4 channels”.

As for `[Sr+2]` [strontium], in experiment [2], the “activation of SK4 channels” value was “activated SK4 channels in a concentration-dependent manner”.
